Experimental findings from publication PMC12028159, “L-Rhamnose Dehydrogenase LraA of Aspergillus niger Shows High Substrate Specificity Matching Its Expression Profile” (Journal of Fungi, 2025) are described below.

The subject of this assay is LraA (L-rhamnose dehydrogenase). Briefly: NADH formation at […] nm, Michaelis-Menten fit. It is filed as biochemical, Aspergillus niger. The settings on record: NAD+ 1 mM as co-substrate, 100 mM Tris-HCl pH 8.0, 25 °C.

Turning to `C[C@@H]1OC(O)[C@H](O)[C@H](O)[C@H]1O` (stereo partly drawn) [L-rhamnose], the Km turned out to be 2400 ± 900 µM.
